This passage reports Ki results from patent publication US8748368B2, “Methods for preserving organs and tissues” (DYAX Corp., priority 2002, dated 2014).

Common to all, as to experiment: Affinity (Ki,app) for protease
What all share (type): biochemical

One test addresses T1, human urine kallikrein (Homo sapiens, UniProt P06870).
T1 construct: from tissue; host or cells: urine (from the name only)

Test [1] concerns the target T2, porcine pancreatic kallikrein (Sus scrofa, UniProt P00752).
T2 construct: from tissue; host or cells: pancreas (from the name only)

The target of a further test is T3, human C1r, activated (Homo sapiens, UniProt P00736).
T3 sequence (P00736 18-463 limits assumed): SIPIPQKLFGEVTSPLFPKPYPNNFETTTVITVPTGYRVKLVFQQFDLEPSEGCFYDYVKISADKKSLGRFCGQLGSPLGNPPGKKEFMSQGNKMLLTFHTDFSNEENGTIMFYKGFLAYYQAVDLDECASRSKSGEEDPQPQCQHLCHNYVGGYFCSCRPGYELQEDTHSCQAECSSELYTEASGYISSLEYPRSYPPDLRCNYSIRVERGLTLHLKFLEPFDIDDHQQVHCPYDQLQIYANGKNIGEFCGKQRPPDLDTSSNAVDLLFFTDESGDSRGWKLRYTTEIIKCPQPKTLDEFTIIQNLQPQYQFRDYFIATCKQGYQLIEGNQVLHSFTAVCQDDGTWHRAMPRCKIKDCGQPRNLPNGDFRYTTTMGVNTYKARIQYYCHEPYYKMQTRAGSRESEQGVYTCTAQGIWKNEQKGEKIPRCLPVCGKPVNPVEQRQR
T3 sequence (P00736 464-705 limits assumed): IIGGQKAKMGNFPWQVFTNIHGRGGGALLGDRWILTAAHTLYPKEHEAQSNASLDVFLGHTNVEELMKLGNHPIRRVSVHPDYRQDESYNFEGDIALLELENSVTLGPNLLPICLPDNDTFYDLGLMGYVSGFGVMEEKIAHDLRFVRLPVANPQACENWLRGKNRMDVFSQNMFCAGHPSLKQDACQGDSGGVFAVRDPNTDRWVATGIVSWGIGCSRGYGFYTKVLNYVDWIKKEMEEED

The next test has as its target T4, human C1s, activated (Homo sapiens, UniProt P09871).
T4 sequence (P09871 16-437 limits assumed): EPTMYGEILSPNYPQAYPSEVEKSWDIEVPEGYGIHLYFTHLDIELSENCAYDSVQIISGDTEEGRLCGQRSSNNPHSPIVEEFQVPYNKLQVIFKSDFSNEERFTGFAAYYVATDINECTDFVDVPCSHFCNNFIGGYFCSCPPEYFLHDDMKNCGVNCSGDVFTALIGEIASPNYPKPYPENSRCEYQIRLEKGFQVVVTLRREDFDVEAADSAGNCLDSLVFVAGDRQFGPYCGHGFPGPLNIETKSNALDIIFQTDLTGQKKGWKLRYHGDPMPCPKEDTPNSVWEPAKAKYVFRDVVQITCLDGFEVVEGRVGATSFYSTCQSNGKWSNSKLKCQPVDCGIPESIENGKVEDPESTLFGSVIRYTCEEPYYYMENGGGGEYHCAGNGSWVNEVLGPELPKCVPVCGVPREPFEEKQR
T4 sequence (P09871 438-688 limits assumed): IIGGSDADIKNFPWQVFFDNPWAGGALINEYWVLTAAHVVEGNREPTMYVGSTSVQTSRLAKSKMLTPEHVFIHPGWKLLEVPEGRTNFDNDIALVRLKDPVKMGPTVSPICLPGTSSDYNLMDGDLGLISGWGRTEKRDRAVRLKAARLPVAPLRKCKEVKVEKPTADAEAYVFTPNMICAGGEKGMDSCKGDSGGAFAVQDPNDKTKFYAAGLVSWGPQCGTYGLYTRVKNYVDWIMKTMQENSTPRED

The target in a further test is T5, human plasma factor XIa (Homo sapiens, UniProt P03951).
T5 construct: human plasma factor XIa; from tissue; host or cells: plasma (from the name only)
T5 sequence (P03951 19-387 limits assumed): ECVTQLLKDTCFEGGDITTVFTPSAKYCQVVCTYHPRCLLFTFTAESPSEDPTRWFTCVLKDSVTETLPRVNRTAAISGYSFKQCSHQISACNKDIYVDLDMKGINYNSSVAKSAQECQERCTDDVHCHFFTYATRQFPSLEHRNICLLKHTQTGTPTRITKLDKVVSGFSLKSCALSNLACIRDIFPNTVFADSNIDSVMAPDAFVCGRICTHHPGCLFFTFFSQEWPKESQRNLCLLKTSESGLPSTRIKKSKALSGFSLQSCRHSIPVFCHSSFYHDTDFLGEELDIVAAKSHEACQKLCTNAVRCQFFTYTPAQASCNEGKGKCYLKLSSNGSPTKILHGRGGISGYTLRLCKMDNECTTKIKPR
T5 sequence (P03951 388-625 limits assumed): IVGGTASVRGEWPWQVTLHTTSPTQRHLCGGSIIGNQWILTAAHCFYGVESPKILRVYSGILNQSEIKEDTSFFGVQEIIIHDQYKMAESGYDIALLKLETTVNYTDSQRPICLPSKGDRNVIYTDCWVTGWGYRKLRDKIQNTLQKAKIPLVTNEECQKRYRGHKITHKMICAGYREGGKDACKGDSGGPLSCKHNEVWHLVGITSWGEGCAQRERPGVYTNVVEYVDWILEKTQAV

For a further test, the target named is T6, human plasmin (Homo sapiens, UniProt P00747).
T6 construct: human plasmin
T6 sequence (P00747 97-580 limits assumed): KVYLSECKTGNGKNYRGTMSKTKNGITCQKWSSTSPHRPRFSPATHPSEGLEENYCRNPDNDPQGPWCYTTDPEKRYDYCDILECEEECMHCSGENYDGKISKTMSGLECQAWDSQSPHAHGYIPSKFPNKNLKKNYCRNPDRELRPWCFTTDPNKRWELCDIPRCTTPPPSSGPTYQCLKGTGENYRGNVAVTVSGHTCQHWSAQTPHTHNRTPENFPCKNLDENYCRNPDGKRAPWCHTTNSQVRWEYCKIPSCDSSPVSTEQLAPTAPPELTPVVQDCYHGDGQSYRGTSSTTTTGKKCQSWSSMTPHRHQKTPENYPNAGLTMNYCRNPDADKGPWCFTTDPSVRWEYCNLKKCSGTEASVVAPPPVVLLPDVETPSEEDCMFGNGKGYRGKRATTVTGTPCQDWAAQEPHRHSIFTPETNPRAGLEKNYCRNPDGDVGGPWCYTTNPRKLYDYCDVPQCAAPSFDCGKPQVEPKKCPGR
T6 sequence (P00747 581-810 limits assumed): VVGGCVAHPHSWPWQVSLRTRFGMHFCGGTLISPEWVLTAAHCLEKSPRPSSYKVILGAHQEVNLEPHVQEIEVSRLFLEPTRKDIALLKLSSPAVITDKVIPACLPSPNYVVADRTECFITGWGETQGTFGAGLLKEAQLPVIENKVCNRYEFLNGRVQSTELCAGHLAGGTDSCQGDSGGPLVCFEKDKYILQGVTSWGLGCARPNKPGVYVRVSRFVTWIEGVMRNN

Test [2] addresses T7, human neutrophil elastase (Homo sapiens, UniProt P08246).
T7 sequence (P08246 30-267): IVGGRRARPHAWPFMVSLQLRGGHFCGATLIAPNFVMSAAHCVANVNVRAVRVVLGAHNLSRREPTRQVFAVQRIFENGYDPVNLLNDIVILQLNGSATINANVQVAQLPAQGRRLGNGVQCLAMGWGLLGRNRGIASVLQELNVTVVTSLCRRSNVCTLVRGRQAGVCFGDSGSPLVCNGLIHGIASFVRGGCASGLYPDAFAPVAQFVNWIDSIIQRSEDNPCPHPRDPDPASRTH

The target in the next test is T8, human plasma thrombin (Homo sapiens, UniProt P00734).
T8 construct: human plasma thrombin; from tissue; host or cells: plasma (from the name only)

The next test deals with human plasma factor XIIa.
Chain of human plasma factor XIIa (P00748 373-615 limits assumed): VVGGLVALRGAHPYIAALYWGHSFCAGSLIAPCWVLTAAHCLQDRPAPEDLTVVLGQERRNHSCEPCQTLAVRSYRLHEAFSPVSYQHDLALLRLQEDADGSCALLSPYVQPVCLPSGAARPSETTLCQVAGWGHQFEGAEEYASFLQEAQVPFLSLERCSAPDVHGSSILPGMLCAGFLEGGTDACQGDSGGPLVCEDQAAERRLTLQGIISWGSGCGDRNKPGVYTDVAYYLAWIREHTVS

Positions of bridges follow the written chain, without caps; N, C: chain ends. No end group written: not given here.

T2 sequence (P00752 8-246): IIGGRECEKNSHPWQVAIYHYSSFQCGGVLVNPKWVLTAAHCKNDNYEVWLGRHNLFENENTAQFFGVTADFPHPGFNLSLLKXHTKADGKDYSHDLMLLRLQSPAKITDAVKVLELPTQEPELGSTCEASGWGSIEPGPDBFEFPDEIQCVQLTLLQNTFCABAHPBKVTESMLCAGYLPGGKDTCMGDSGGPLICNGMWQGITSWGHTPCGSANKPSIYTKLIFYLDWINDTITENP
T1 sequence (P06870 25-262): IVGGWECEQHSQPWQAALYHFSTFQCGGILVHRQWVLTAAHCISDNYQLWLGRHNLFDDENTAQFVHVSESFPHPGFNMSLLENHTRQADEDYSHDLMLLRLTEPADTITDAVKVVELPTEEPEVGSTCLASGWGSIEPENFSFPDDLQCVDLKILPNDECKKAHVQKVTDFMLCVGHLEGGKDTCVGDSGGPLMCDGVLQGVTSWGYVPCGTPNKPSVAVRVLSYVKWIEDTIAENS

Consider “EAMHSFCAFKADDGPCRAAHPRWFFNIFTRQCEEFIYGGCEGNQNRFESLEECKKMCTRD (disulfide 7-57, 16-40, 32-53) [PEP-1]”, for which the Ki on human urine kallikrein was > 100 µM; in test [1] it was 27 µM; at human C1r, activated, > 200 µM; at human C1s, activated, > 20 µM; on human plasma factor XIa, 0.01 µM; at human plasmin, 0.14 µM. Also, the Ki (in test [2]; on human plasma thrombin) was > 20 µM in each case.

Take aprotinin [reference compound]: the Ki at human C1s, activated was > 100 µM; at human plasma factor XIIa, > 100 µM; at human plasma thrombin it was > 100 µM.
